Data from publication PMC6572064, “Discovery of 2-(1-(3-(4-Chloroxyphenyl)-3-oxo- propyl)pyrrolidine-3-yl)-1H-benzo[d]imidazole-4-carboxamide: A Potent Poly(ADP-ribose) Polymerase (PARP) Inhibitor for Treatment of Cancer” (Molecules, 2019).
Like-named read-outs stand apart in the source and are kept apart here.

Key:
[1] = tested on: MDA-MB-436 (a BRCA-1-mutated breast cancer cell line); assay: Cell proliferation assay, three-day, CellTiter-Glo, MDA-MB-436; type: cell-based; conditions: Homo sapiens; for inhibition at 0.00508 µM: MDA-MB-436, MDA-MB-436, Conc. 0.00508 uM; for inhibition at 0.0152 µM: MDA-MB-436, MDA-MB-436, Conc. 0.0152 uM; for inhibition at 0.0457 µM: MDA-MB-436, MDA-MB-436, Conc. 0.0457 uM; for inhibition at 0.41 µM: MDA-MB-436, MDA-MB-436, Conc. 0.41 uM; for inhibition at 1.23 µM: MDA-MB-436, MDA-MB-436, Conc. 1.23 uM; for inhibition at 3.7 µM: MDA-MB-436, MDA-MB-436, Conc. 3.70 uM; for inhibition at 11.11 µM: MDA-MB-436, MDA-MB-436, Conc. 11.11 uM; for inhibition at 33.33 µM: MDA-MB-436, MDA-MB-436, Conc. 33.33 uM; for inhibition at 100 µM: MDA-MB-436, MDA-MB-436, Conc. 100.00 uM
Summary of the method: (§1)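 Cells seeded overnight in 384-well plates, then exposed to compounds (DMSO stock diluted in medium) for 72 h at 37 °C, 5% CO2. Viability read as CellTiter-Glo luminescence after 60 min at room temperature.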

[2] = target: T1, PARP-2 (Homo sapiens, UniProt Q9UGN5); assay: PARP-2 inhibition assay (PARP-2 Chemiluminescent Assay Kit, BPS Bioscience); type: biochemical; conditions: 10 nM compound
T1 construct: purchased BPS Bioscience 80552
Description: (§2) The PARP-1 and PARP-2 inhibition assays were performed in outsourcing, by a CRO company, Shanghai Medicilon Inc. (Shanghai, China). […] Briefly, PARP-1 or PARP-2 biotinylated substrate was incubated with compounds or solvent control at varying concentrations and an assay buffer containing the PARP-1 or PARP-2 enzyme.

[3] = target: T2, PARP-1 (Homo sapiens, UniProt P09874); assay: PARP-1 inhibition assay (PARP-1 Chemiluminescent Assay Kit, BPS Bioscience); type: biochemical; conditions: 10 nM compound
T2 construct: purchased BPS Bioscience 80569
Description: as §2

[4] = tested on: CAPAN-1 (a BRCA-2-mutated pancreatic cancer cell line); assay: Cell proliferation assay, three-day, CellTiter-Glo, CAPAN-1; type: cell-based; conditions: Homo sapiens; for inhibition at 0.00508 µM: CAPAN-1, Conc. 0.00508 uM; for inhibition at 0.0152 µM: CAPAN-1, Conc. 0.0152 uM; for inhibition at 0.0457 µM: CAPAN-1, Conc. 0.0457 uM; for inhibition at […]: CAPAN-1, Conc. 0.14 uM; for inhibition at 0.41 µM: CAPAN-1, Conc. 0.41 uM; for inhibition at 1.23 µM: CAPAN-1, Conc. 1.23 uM; for inhibition at 3.7 µM: CAPAN-1, Conc. 3.70 uM; for inhibition at 11.11 µM: CAPAN-1, Conc. 11.11 uM; for inhibition at 33.33 µM: CAPAN-1, Conc. 33.33 uM; for inhibition at 100 µM: CAPAN-1, Conc. 100.00 uM
Summary of the method: as §1

T1 sequence (Q9UGN5 whole entry): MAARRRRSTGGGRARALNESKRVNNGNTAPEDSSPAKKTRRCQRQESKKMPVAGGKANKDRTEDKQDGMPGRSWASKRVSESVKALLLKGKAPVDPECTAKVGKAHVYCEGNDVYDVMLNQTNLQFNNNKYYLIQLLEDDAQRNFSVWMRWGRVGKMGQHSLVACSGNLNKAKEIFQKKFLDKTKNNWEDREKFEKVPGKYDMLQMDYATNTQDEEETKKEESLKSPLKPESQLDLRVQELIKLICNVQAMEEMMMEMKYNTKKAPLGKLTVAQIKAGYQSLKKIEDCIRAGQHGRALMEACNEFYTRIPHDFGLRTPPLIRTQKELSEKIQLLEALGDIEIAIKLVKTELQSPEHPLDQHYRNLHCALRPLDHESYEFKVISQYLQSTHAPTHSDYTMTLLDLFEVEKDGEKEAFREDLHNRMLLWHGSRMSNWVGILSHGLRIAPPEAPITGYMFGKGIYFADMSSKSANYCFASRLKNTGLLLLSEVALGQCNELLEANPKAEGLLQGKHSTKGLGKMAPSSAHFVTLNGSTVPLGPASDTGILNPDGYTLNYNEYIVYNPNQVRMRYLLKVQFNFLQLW
T2 sequence (P09874 whole entry): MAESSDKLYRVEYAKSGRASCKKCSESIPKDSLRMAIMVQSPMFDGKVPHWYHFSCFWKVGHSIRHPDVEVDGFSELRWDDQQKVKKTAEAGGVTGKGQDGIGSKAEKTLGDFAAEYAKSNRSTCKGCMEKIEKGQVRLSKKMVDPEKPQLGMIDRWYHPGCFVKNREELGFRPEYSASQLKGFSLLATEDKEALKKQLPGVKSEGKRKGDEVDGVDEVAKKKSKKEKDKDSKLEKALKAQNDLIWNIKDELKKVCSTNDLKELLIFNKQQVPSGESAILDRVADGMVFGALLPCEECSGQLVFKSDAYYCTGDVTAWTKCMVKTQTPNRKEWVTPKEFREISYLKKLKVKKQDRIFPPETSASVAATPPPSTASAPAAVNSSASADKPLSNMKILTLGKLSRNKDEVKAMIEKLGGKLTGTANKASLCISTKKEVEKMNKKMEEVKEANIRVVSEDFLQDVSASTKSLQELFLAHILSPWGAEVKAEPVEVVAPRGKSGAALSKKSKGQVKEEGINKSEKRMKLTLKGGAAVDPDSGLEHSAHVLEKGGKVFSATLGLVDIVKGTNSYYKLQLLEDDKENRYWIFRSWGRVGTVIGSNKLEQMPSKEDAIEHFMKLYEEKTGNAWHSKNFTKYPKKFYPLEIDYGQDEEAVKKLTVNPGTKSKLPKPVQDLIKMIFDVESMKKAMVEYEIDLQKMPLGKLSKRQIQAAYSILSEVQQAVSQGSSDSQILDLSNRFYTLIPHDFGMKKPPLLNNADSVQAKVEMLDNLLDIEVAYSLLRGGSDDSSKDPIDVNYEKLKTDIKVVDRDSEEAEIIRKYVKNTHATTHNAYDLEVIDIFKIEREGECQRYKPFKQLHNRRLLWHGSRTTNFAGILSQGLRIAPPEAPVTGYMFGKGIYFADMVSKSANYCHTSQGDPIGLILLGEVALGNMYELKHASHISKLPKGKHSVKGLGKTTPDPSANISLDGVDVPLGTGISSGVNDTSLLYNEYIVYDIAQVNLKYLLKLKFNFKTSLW

Work on NCCCN1CCC(c2nc3c(C(N)=O)cccc3[nH]2)C1 (centres unmarked) [Compound 5cl, 2-(1-(3-Aminopropyl)pyrrolidin-3-yl)-1H-benzo[d]imidazole-4-carboxamide] yielded an inhibition at 0.00508 µM ([1]; replicate 1, read-out: Inh % 1) of 4.5%, an inhibition at 0.00508 µM ([1]; replicate 2, read-out: Inh % 2) of -3.7% and an inhibition at 0.0152 µM ([1]; replicate 1, read-out: Inh % 1) of 0.4%. It also gave an inhibition at 0.0152 µM ([1]; replicate 2, read-out: Inh % 2) of -4.9%, an inhibition at 0.0457 µM ([1]; replicate 1, read-out: Inh % 1) of -13.5% and an inhibition at 0.0457 µM ([1]; replicate 2, read-out: Inh % 2) of -10.1%. It also gave an inhibition at 0.41 µM ([1]; replicate 1, read-out: Inh % 1) of -7.3%, an inhibition at 0.41 µM ([1]; replicate 2, read-out: Inh % 2) of -7.6% and an inhibition at 1.23 µM ([1]; replicate 1, read-out: Inh % 1) of -9%. It also gave an inhibition at 1.23 µM ([1]; replicate 2, read-out: Inh % 2) of -8.7%, an inhibition at 3.7 µM ([1]; replicate 1, read-out: Inh % 1) of -7.4% and an inhibition at 3.7 µM ([1]; replicate 2, read-out: Inh % 2) of -9.8%. The inhibition at 11.11 µM ([1]; replicate 1, read-out: Inh % 1) was -5.4%, the inhibition at 11.11 µM ([1]; replicate 2, read-out: Inh % 2) was -5.2% and the inhibition at 33.33 µM ([1]; replicate 1, read-out: Inh % 1) was 1.9%. It also gave an inhibition at 33.33 µM ([1]; replicate 2, read-out: Inh % 2) of -7%, an inhibition at 100 µM ([1]; replicate 1, read-out: Inh % 1) of 7.4% and an inhibition at 100 µM ([1]; replicate 2, read-out: Inh % 2) of 2.1%. For the same compound, the IC50 ([1]; MDA-MB-436, 72 h, CellTiter-Glo, read-out: MDA-MB-436 IC50) was over 100 µM, the inhibition at 0.01 µM ([2]; supplement sheet, read-out: 10 nM inhibition% PAPR-2) was 46.4% and the inhibition at 0.01 µM ([2]; read-out: PARP-2 Inhibition % (10 nM)) was 46.4%. It also gave an inhibition at 0.01 µM ([3]; supplement sheet, read-out: 10 nM inhibition% PAPR-1) of 26.8%, an inhibition at 0.01 µM ([3]; read-out: PARP-1 Inhibition % (10 nM)) of 26.8% and an IC50 ([4]; CAPAN-1, 72 h, CellTiter-Glo, read-out: CAPAN-1 IC50) of over 100 µM. For the same compound, the inhibition at 0.00508 µM ([4]; replicate 1, read-out: Inh % 1) was 0.0228%, the inhibition at 0.00508 µM ([4]; replicate 2, read-out: Inh % 2) was -3.6% and the inhibition at 0.0152 µM ([4]; replicate 1, read-out: Inh % 1) was -3.3%. It also gave an inhibition at 0.0152 µM ([4]; replicate 2, read-out: Inh % 2) of -4.8%, an inhibition at 0.0457 µM ([4]; replicate 1, read-out: Inh % 1) of 0.238% and an inhibition at 0.0457 µM ([4]; replicate 2, read-out: Inh % 2) of -10.3%. The inhibition at […] ([4]; replicate 1, read-out: Inh % 1) was 4.7%, the inhibition at […] ([4]; replicate 2, read-out: Inh % 2) was -9.8% and the inhibition at 0.41 µM ([4]; replicate 1, read-out: Inh % 1) was 1.3%. The inhibition at 0.41 µM ([4]; replicate 2, read-out: Inh % 2) was 5.2%, the inhibition at 1.23 µM ([4]; replicate 1, read-out: Inh % 1) was -5.5% and the inhibition at 1.23 µM ([4]; replicate 2, read-out: Inh % 2) was 3.8%. It also gave an inhibition at 3.7 µM ([4]; replicate 1, read-out: Inh % 1) of 4.6%, an inhibition at 3.7 µM ([4]; replicate 2, read-out: Inh % 2) of -3% and an inhibition at 11.11 µM ([4]; replicate 1, read-out: Inh % 1) of -2.8%. The inhibition at 11.11 µM ([4]; replicate 2, read-out: Inh % 2) was -3.6%, the inhibition at 33.33 µM ([4]; replicate 1, read-out: Inh % 1) was -7.9% and the inhibition at 33.33 µM ([4]; replicate 2, read-out: Inh % 2) was -7.8%. The inhibition at 100 µM ([4]; replicate 1, read-out: Inh % 1) was -10.8% and the inhibition at 100 µM ([4]; replicate 2, read-out: Inh % 2) was -6.6%.
